In brackets after ≈: the same amount, converted by molar mass. Entries after “also recorded” stand apart in the source; their conditions may differ. Where a name gives a salt, the structure may show the parent alone.
Key:
[1] = molecular target: T1, gelatinase B from neutrophils (Homo sapiens, UniProt P14780); assay: gelatinase microtiter plate assay (digestion of biotinylated gelatin, inhibition factor); format: biochemical; design: endogenous in cells; host or cells: human neutrophils stimulated with lipopolysaccharide; conditioned medium; settings: crude neutrophil gelatinase B, '-' = no inhibitory activity
Method: The measurement of gelatinase activity was based on the detection of non-degraded biotinylated gelatin with a streptavidin-peroxidase conjugate. This test is based on the biotin-avidin method described by Sorbi et al. (25) but modified to a one plate assay (schematically represented in Fig. 1.). Gelatin (1mg/ml) was dissolved in 0.1 M sodium bicarbonate pH 8.3 by heating to 40°C. Biotin-N-hydroxysuccinimide ester was dissolved in dimethylsulfoxide (Me2SO) and was added to the gelatin in a 15-fold molar excess. The mixture was allowed to react overnight at 4°C and the biotinylated gelatin was then dialyzed against phosphate buffered saline (PBS). Neutrophil granulocyte (Neu) medium was collected from human neutrophils after stimulation with lipopolysaccharide (1µg/ml) overnight at 37°C in Minimal Essential Medium. Cells were removed by 10 min centrifugation at 1000 g. Purified gelatinase was obtained by one-step affinity chromatography of neutrophil medium on a gelatin-sepharose column as described (8).
Modified flat bottom 96-well ELISA plates were coated overnight with 0.5 µg/ml avidin in distilled water. The plates were then blocked with 0.3% bovine serum albumin (BSA, Sigma) in PBS for 1 hour at 37°C. Biotinylated gelatin was diluted to 50 µg/ml and 100µl was added to the avidin-coated wells. After incubation for one hour at 20°C, the plate was rinsed with PBS. Medium containing the secreted gelatinases from human neutrophils (dilution range 1/3-1/3^11) and the inhibitors were diluted in incubation buffer (50 mM Tris-HCl pH 7.5, 10 mM CaCl2, 0.02% (W/V) NaN3, 1% (V/V) Triton X-100) and 100 µl of each were mixed. 190 µl of the mixture was added to the gelatin-coated plates and allowed to digest the gelatin overnight at 37°C. The plates were then washed with PBS and each well was incubated with 100 µl peroxidase-conjugated-streptavidin at a 1:2000 dilution for 1 hour at 37°C. After rinsing the plate, the ABTS substrate was added (0.5 mg/ml solution containing 0.1 M citric acid, 0.2 M Na2HPO4, pH 4.3, 0.07 µl/ml 30% H2O2) and the optical density was read at 405 nm after 10 min. incubation at room temperature.
Gelatin is biotinylated and bound to avidin-coated microtiter plates. By addition of gelatinases the number of free biotin groups decreases and proportionally less streptavidin-peroxidase is bound to the residual substrate. Bound streptavidin-peroxidase activity is measured spectrophotometrically by reaction of peroxide with ABTS. Inhibition of gelatinase is obtained by the addition of inhibitor to a known amount of gelatinase prior to application to the plates. The peroxidase activity increases proportionally with the inhibitory activity.
The titration curves of gelatinase inhibition were always related to a blanc curve and this for enzyme concentrations within the slope of the curve (vertical dotted lines Fig. 3). The decrease in enzyme activity to which the inhibitor-incubated sample corresponded was defined as the inhibition factor (IF).
The titration curves of gelatinase inhibition by tetracyclines were always related to a blanc curve and this for enzyme concentrations within the slope of the curve (vertical dotted lines Fig. 3). The decrease in enzyme activity to which the tetracycline incubated sample corresponded was defined as the inhibition factor (IF).

[2] = molecular target: T2, Gelatinase A (Homo sapiens, UniProt P08253); assay: zymography of cerebrospinal fluid of MS / optic neuritis patients with inhibitor; format: biochemical; settings: CSF of MS patients, increasing concentrations (Fig. 13)
T2 construct: Gelatinase A and B, detected by zymography in the cerebrospinal fluid of MS patients; from tissue; host or cells: cerebrospinal fluid of patients with multiple sclerosis or optic neuritis
T2 sequence (P08253 110-660): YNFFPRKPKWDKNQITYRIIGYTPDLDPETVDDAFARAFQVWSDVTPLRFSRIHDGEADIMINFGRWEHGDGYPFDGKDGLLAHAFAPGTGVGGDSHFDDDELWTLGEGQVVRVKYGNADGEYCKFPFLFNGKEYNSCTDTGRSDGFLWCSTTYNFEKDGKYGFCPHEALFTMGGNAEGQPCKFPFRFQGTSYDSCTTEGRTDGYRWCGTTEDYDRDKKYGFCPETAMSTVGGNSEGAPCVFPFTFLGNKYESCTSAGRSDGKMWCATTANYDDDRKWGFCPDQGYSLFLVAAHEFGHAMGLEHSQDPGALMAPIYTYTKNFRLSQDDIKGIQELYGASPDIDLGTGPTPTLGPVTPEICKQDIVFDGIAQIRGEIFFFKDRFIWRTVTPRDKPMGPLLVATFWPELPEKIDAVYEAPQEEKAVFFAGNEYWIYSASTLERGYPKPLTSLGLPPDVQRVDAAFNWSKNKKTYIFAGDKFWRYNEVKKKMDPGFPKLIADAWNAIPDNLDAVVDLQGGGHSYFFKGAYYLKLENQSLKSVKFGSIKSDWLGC
Method: (§1) Quantitative zymography was performed as described (7,8). Briefly, 40 µl of loading buffer was added to 40 µl of each sample and applied on 7.5% polyacrylamide gels which had been co-polymerised with 0.1% (w/v) gelatin. Stacking gels contained 5% polyacrylamide. The gels were run at 4°C for 16h at 90V. The gels were then incubated in washing buffer (50 mM Tris-HCl pH 7.5, 10mM CaCl2, O.O2% (W/V) NaN3, 2.5% (v/v) Triton X-100) at room temperature, 2x20 min to remove sodium dodecyl sulfate and overnight in developing buffer (50 mM Tris-HCl pH 7.5, 10mM CaCl2, O.O2% (w/v) NaN3, 1% (v/v) Triton X-100) at 37°C. […] The sites of gelatinase activity appeared as unstained bands on a blue background and were quantified by computerised image analysis through scanning densitometry with a PDI scanner (Pharmacia, Belgium) and the PDI software package. […]
(§2) Similar results were obtained when pure preparations of gelatinase B were tested or when gelatinase B was measured in the presence of D-penicillamine in body fluids or cell supernatants.
(§3) Figure 13. […] Gelatinase A (---) and B(_) activities in the CSF were measured by zymography in the absence or the presence of increasing concentrations of D-penicillamine. The scanning indices for each patient are calculated at the residual activity in the presence of inhibitor versus the activity without inhibitor. […]

[3] = molecular target: T3, Gelatinase B (Homo sapiens, UniProt P14780); assay: as above; format: biochemical; settings: CSF of MS patients, increasing concentrations (Fig. 13)
T3 construct: Gelatinase A and B, detected by zymography in the cerebrospinal fluid of MS patients; from tissue; host or cells: cerebrospinal fluid of patients with multiple sclerosis or optic neuritis
Method: as §1, §2, §3

[4] = tested on: gelatinase B; assay: inhibition of homogeneous enzyme (ID50); format: biochemical
[5] = tested on: human monocytic cell line THP-1; assay: cellular gelatinase B protein and mRNA production (northern blot, zymography); format: cell-based; settings: THP-1, LPS 1µg/ml, retinoic acid 100nM or untreated; DPEN 50 µg/ml; 16 h (Fig. 14)
Method: Figure 14. […] Cultures of the human monocytic cell line THP-1 were stimulated with lipopolysaccharide (LPS, 1µg/ml), retinoic acid (RA, 100nM) or left untreated (CO) in the presence or absence of D-penicillamine (DPEN, 50 µg/ml). After 16 h total RNA was extracted and gelatinase B mRNA was measured by northern blot analysis with a human probe (41) (a). Gelatinase B protein in the cell culture fluids was assayed by zymographic analysis on gelatin substrate gels (b).

[6] = tested on: Biozzi AB/H mice; assay: chronic relapsing experimental allergic encephalomyelitis; format: in vivo; settings: 750 µg three times weekly from day 22 onwards, after full-blown disease (Fig. 16)
[7] = tested on: SJL mice; assay: acute (hyperacute) experimental allergic encephalomyelitis; settings: intraperitoneally, equivalent of 27 to 375 µg per mouse daily (Fig. 15)
Method: In both hind paws 50µl of this emulsion was injected on day 0. On day 0 and 2, 50µl B.pertussis (200x10^9 bacteria/ml) were injected intraveneously. […] The control group received injections with 0.9% NaCl, used as excipiens. The animals were daily monitored and the disease and mortality were scored.).

[8] = molecular target: T1, gelatinase B from neutrophils; assay: quantitative gelatin zymography with inhibitor in the developing buffer; format: biochemical; design: A standard preparation of gelatinase B from neutrophils was repetitiously loaded; endogenous in cells; host or cells: human neutrophils; settings: increasing amounts of inhibitor in developing buffer (Fig. 4)
Method: Quantitative zymography was performed as described (7,8). Briefly, 40 µl of loading buffer was added to 40 µl of each sample and applied on 7.5% polyacrylamide gels which had been co-polymerised with 0.1% (w/v) gelatin. Stacking gels contained 5% polyacrylamide. The gels were run at 4°C for 16h at 90V. The gels were then incubated in washing buffer (50 mM Tris-HCl pH 7.5, 10mM CaCl2, O.O2% (W/V) NaN3, 2.5% (v/v) Triton X-100) at room temperature, 2x20 min to remove sodium dodecyl sulfate and overnight in developing buffer (50 mM Tris-HCl pH 7.5, 10mM CaCl2, O.O2% (w/v) NaN3, 1% (v/v) Triton X-100) at 37°C. The gels were then stained in Coomassie brilliant blue R-250 and destained in methanol/acetic acid. The sites of gelatinase activity appeared as unstained bands on a blue background and were quantified by computerised image analysis through scanning densitometry with a PDI scanner (Pharmacia, Belgium) and the PDI software package. For inhibition experiments, the inhibitors were dissolved in the developing buffer at the appropriate concentration. […] The enzyme activity was developed by staining of the substrate with Coomassie blue and quantification of the substrate digestion by scanning densitometry. […] The enzyme activity was developed by staining of the substrate with Coomassie blue and quantification of the substrate digestion by scanning densitometry. […]

[9] = tetracycline concentration 3.33 mg/ml
[10] = tetracycline concentration 1.67 mg/ml
[11] = tetracycline concentration 0,83 mg/ml

T1 sequence (P14780 94-707): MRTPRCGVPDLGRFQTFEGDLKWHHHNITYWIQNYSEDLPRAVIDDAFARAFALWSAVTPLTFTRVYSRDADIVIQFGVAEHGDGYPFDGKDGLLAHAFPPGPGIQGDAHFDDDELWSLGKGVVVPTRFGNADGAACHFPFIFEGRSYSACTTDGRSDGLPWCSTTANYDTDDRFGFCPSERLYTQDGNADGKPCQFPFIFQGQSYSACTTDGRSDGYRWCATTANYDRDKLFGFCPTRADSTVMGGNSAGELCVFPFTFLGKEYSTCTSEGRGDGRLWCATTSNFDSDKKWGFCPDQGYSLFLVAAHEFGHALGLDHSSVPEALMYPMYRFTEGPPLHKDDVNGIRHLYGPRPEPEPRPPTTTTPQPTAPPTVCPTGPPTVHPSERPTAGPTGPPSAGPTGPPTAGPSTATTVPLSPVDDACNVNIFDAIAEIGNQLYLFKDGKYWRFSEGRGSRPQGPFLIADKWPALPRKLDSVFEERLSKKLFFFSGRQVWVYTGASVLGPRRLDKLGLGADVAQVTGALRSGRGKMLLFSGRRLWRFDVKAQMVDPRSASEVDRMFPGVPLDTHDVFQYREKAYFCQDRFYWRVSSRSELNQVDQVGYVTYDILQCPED
T3 sequence (P14780 94-707): as above

Row | Compound | Inhibition factor (IF) [1, 9] | Inhibition factor (IF) [1, 10] | further results
1 | CN(C)[C@@H]1C(=O)C(C(N)=O)=C(O)[C@@]2(O)C(=O)C[C@@H]([C@]3(C)OC(=O)c4c(O)ccc(Cl)c43)C[C@@H]12 [isochlortetracycline HCl] | 3 |  | 
2 | α-apooxytetracycline base | 9 | 3 | 
3 | β-apooxytetracycline base | 3 |  | 
4 | CN(C)[C@@H]1C(O)=C(C(N)=O)C(=O)[C@@]2(O)C(O)=C3C(=O)c4c(O)cccc4C[C@H]3C[C@@H]12 [6-deoxy-6-demethyltetracycline HCl] | 8 | 5 | Inhibition factor (IF) [1, 11]: 3
5 | CN(C)[C@@H]1C(O)=C(C(N)=O)C(=O)[C@@]2(O)C(O)=C3C(=O)c4c(O)ccc(Cl)c4[C@@](C)(O)[C@H]3C[C@@H]12 [chlortetracycline HCl] | 45 | 27 | Inhibition factor (IF) [1, 11]: 9
6 | 7-aminominocycline HCl | precipitation |  | 
7 | C=C1c2cccc(O)c2C(=O)C2=C(O)[C@]3(O)C(=O)C(C(N)=O)=C(O)[C@@H](N(C)C)[C@@H]3[C@@H](O)[C@H]12 [metacycline HCl] | 27 | 8 | Inhibition factor (IF) [1, 11]: 3
8 | Cc1c2c(c(O)c3c(O)cccc13)C(=O)[C@]1(O)C(=O)C(C(N)=O)=C(O)[C@H](N(C)C)[C@@H]1C2 [4-epianhydrotetracycline HCl] | precipitation |  | 
9 | CN(C)c1ccc(O)c2c1C[C@H]1C[C@H]3[C@@H](N(C)C)C(O)=C(C(N)=O)C(=O)[C@@]3(O)C(O)=C1C2=O [4-epiminocycline HCl] | 3 |  | 
10 | CN(C)[C@@H]1C(O)=C(C(N)=O)C(=O)[C@@]2(O)C(O)=C3C(=O)c4c(O)cccc4[C@@](C)(O)[C@H]3C[C@@H]12 [tetracycline HCl] | 8 | 3 | 
11 | 4-epitetracycline HCl |  | 3 | 
12 | CC(C)(S)[C@@H](N)C(=O)O [D-penicillamine] |  |  | inhibition of Gelatinase A in cerebrospinal fluid [2]: inhibited in a dose-dependent way; inhibition of Gelatinase B in cerebrospinal fluid [3]: inhibited in a dose-dependent way; ID50 [4]: 3 mg/L (≈ 20.1 µM); spontaneous and induced levels of gelatinase B protein and mRNA [5]: remained constant; disease recurrencies (mean clinical score), chronic relapsing EAE [6]: abrogated the disease recurrencies; development of disease symptoms (mean disability index), acute EAE [7]: complete blockage; also recorded: inhibits in a dose-dependent way the development of disease symptoms
13 | CN(C)c1ccc(O)c2c1C[C@H]1C[C@H]3[C@H](N(C)C)C(O)=C(C(N)=O)C(=O)[C@@]3(O)C(O)=C1C2=O [minocycline HCl] | 8 | 3 | inhibition of gelatinase B on zymography [8]: inhibits gelatinase B in a dose-dependent way
14 | CN(C)[C@H]1C(O)=C(C(N)=O)C(=O)[C@@]2(O)C(O)=C3C(=O)c4c(O)ccc(Cl)c4[C@@](C)(O)[C@H]3C[C@@H]12 [4-epichlortetracycline HCl] | precipitation |  | 

From patent EP0736302A2, “Protease inhibitors, a DNA construct for the expression of a protease and a process for measuring proteases and/or protease inhibitors” (Stichting REGA V.Z.W., priority 1995, dated 1996)
